These results are taken from patent publication US6962924B2, “Salt and polymorphs of desloratadine hemifumarate” (priority 2002, dated 2005).

For data set [1] the following is noted: mixed with three volumes of lactose monohydrate, 40° C. and 75% RH, one week.
A short description of data set [2]: Stability of the polymorphic form (vacuum at 50° C., crushing). It is filed as physicochemical.
The nature of data set [3]: Hygroscopicity (moisture absorption) in DVS. It is filed as physicochemical. The settings on record: relative humidity (RH) of 90%.

For `Clc1ccc2c(c1)CCc1cccnc1C2=C1CCNCC1.Clc1ccc2c(c1)CCc1cccnc1C2=C1CCNCC1.O=C(O)C=CC(=O)O` [Desloratadine hemifumarate (polymorph 1), Descarbonylethoxyloratadine Hemifumarate], the “Appearance after stress storage (color, crystallinity, texture)” value (“Appearance after stress storage” below) in data set [1] was “retained its crystallinity, color and the texture”. In addition, the “Change of polymorphic form under vacuum at 50° C.” value in data set [2] is listed as “can be changed to polymorphic form 2”. For the same molecule, the moisture absorption value in data set [3] (listed as desloratadine polymorphic form 1) is recorded as 0.9%.

As to `Clc1ccc2c(c1)CCc1cccnc1C2=C1CCNCC1.Clc1ccc2c(c1)CCc1cccnc1C2=C1CCNCC1.O=C(O)C=CC(=O)O` [Desloratadine hemifumarate (polymorph 2), Descarbonylethoxyloratadine Hemifumarate], the “Appearance after stress storage” value in data set [1] was “retained its crystallinity, color and the texture”. Moreover, the moisture absorption value in data set [3] (listed as Desloratadine hemifumarate polymorphic form 2) was 0.3%.

Regarding `Clc1ccc2c(c1)CCc1cccnc1C2=C1CCNCC1` [Standard desloratadine, 8-chloro-6,11-dihydro-11-(4-piperidylidene)-5H-benzo[5,6]-cyclohepta[1,2-b]pyridine, reference compound], the “Appearance after stress storage” value in data set [1] is “showed discoloration”. In data set [3], this molecule yielded a moisture absorption value of 0.3%.
